# Test results as given in PubChem BioAssay AID2060506 (Molecular Pharmacology Branch, DTP, NCI, 2025).
# Tested on: 598228-144-R-J1-PDC complex spheroid viability
# Assay: Anticancer human tumor 598228-144-R-J1-PDC patient-derived serous endometrial adenocarcinoma cell line growth inhibition [GQUAD]
# Conditions: for IC50: curve of first compound; for viability, T/C: stronger effect = lower value
# Method in brief: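 Tumor cells were grown as complex spheroids with HUVEC endothelial cells and mesenchymal stem cells as stroma. G-quadruplex stabilizers were combined with targeted agents over half-log dilutions from near the clinical Cmax, or from 10 microM.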
# [1] = second compound 0.0316 µM, first compound 0.0316 µM
# [2] = second compound 0.0316 µM, first compound 0.1 µM
# [3] = second compound 0.0316 µM, first compound 0.316 µM
# [4] = second compound 0.0316 µM, first compound 1 µM
# [5] = second compound 0.0316 µM, first compound 3.16 µM
# [6] = second compound 0.0316 µM, first compound 10 µM
# [7] = second compound 0.1 µM, first compound 0.0316 µM
# [8] = second compound 0.1 µM, first compound 0.1 µM
# [9] = second compound 0.1 µM, first compound 0.316 µM
# [10] = second compound 0.1 µM, first compound 1 µM
# [11] = second compound 0.1 µM, first compound 3.16 µM
# [12] = second compound 0.1 µM, first compound 10 µM
# [13] = second compound 0.316 µM, first compound 0.0316 µM
# [14] = second compound 0.316 µM, first compound 0.1 µM
# [15] = second compound 0.316 µM, first compound 0.316 µM
# [16] = second compound 0.316 µM, first compound 1 µM
# [17] = second compound 0.316 µM, first compound 3.16 µM
# [18] = second compound 0.316 µM, first compound 10 µM
# [19] = second compound 1 µM, first compound 0.0316 µM
# [20] = second compound 1 µM, first compound 0.1 µM
# [21] = second compound 1 µM, first compound 0.316 µM
# [22] = second compound 1 µM, first compound 1 µM
# [23] = second compound 1 µM, first compound 3.16 µM
# [24] = second compound 1 µM, first compound 10 µM
# [25] = second compound 3.16 µM, first compound 0.0316 µM
# [26] = second compound 3.16 µM, first compound 0.1 µM
# [27] = second compound 3.16 µM, first compound 0.316 µM
# [28] = second compound 3.16 µM, first compound 1 µM
# [29] = second compound 3.16 µM, first compound 3.16 µM
# [30] = second compound 3.16 µM, first compound 10 µM
# [31] = second compound 10 µM, first compound 0.0316 µM
# [32] = second compound 10 µM, first compound 0.1 µM
# [33] = second compound 10 µM, first compound 0.316 µM
# [34] = second compound 10 µM, first compound 1 µM
# [35] = second compound 10 µM, first compound 3.16 µM
# [36] = second compound 10 µM, first compound 10 µM
# 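Also: spheroids exposed to the agents for one week before reading.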
# 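For viability, T/C in this document: percent of vehicle DMSO control viability so 100% = untreated growth.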
structure (smiles),measurement,setting,value
CC(=O)O[C@H]1C(=O)[C@@]2(C)[C@H]([C@H](OC(=O)c3ccccc3)[C@]3(O)C[C@H](OC(=O)[C@H](O)[C@@H](NC(=O)c4ccccc4)c4ccccc4)C(C)=C1C3(C)C)[C@]1(OC(C)=O)CO[C@@H]1C[C@@H]2O + Cc1[nH]c2ccc(F)cc2c1-c1nc2c3cccnc3c3ncccc3c2[nH]1,IC50,second compound 0.0316 µM,141 nM
same,IC50,second compound 0.1 µM,51 nM
same,IC50,second compound 0.316 µM,4360 nM
same,IC50,second compound 1 µM,< 31.6 nM
same,IC50,second compound 3.16 µM,< 31.6 nM
same,IC50,second compound 10 µM,< 31.6 nM
same,"viability, T/C",[1],56.2%
same,"viability, T/C",[2],46.4%
same,"viability, T/C",[3],48.4%
same,"viability, T/C",[4],43.9%
same,"viability, T/C",[5],50.9%
same,"viability, T/C",[6],39.8%
same,"viability, T/C",[7],55.1%
same,"viability, T/C",[8],42.1%
same,"viability, T/C",[9],52.2%
same,"viability, T/C",[10],41.7%
same,"viability, T/C",[11],40.6%
same,"viability, T/C",[12],45.6%
same,"viability, T/C",[13],63.6%
same,"viability, T/C",[14],59.6%
same,"viability, T/C",[15],52.5%
same,"viability, T/C",[16],53.3%
same,"viability, T/C",[17],50.1%
same,"viability, T/C",[18],49.1%
same,"viability, T/C",[19],49.8%
same,"viability, T/C",[20],42.9%
same,"viability, T/C",[21],50.1%
same,"viability, T/C",[22],39%
same,"viability, T/C",[23],37.5%
same,"viability, T/C",[24],40.1%
same,"viability, T/C",[25],45.2%
same,"viability, T/C",[26],33.6%
same,"viability, T/C",[27],37.5%
same,"viability, T/C",[28],39.3%
same,"viability, T/C",[29],34.9%
same,"viability, T/C",[30],38.4%
same,"viability, T/C",[31],40.3%
same,"viability, T/C",[32],46.3%
same,"viability, T/C",[33],41.7%
same,"viability, T/C",[34],49.5%
same,"viability, T/C",[35],48.3%
same,"viability, T/C",[36],39.6%
CC1COCCN1c1cc(C2(O)CC3CCC(C2)O3)c2cnn(-c3ccn[nH]3)c2n1 (stereo unspecified) + Cc1[nH]c2ccc(F)cc2c1-c1nc2c3cccnc3c3ncccc3c2[nH]1,IC50,second compound 0.0316 µM,144 nM
same,IC50,second compound 0.1 µM,95 nM
same,IC50,second compound 0.316 µM,< 31.6 nM
same,IC50,second compound 1 µM,< 31.6 nM
same,IC50,second compound 3.16 µM,< 31.6 nM
same,IC50,second compound 10 µM,< 31.6 nM
same,"viability, T/C",[1],68%
same,"viability, T/C",[2],48%
same,"viability, T/C",[3],39%
same,"viability, T/C",[4],40.7%
same,"viability, T/C",[5],28%
same,"viability, T/C",[6],14%
same,"viability, T/C",[7],61.3%
same,"viability, T/C",[8],40.1%
same,"viability, T/C",[9],46.8%
same,"viability, T/C",[10],34.9%
same,"viability, T/C",[11],31.5%
same,"viability, T/C",[12],17.4%
same,"viability, T/C",[13],48.8%
same,"viability, T/C",[14],44.1%
same,"viability, T/C",[15],44.2%
same,"viability, T/C",[16],37.6%
same,"viability, T/C",[17],28.3%
same,"viability, T/C",[18],12.6%
same,"viability, T/C",[19],48.9%
same,"viability, T/C",[20],37.1%
same,"viability, T/C",[21],38%
same,"viability, T/C",[22],27.4%
same,"viability, T/C",[23],19.9%
same,"viability, T/C",[24],12.7%
same,"viability, T/C",[25],36.8%
same,"viability, T/C",[26],38.8%
same,"viability, T/C",[27],30.3%
same,"viability, T/C",[28],26.7%
same,"viability, T/C",[29],18.3%
same,"viability, T/C",[30],8.63%
same,"viability, T/C",[31],41.4%
same,"viability, T/C",[32],37.4%
same,"viability, T/C",[33],31.6%
same,"viability, T/C",[34],29.7%
same,"viability, T/C",[35],25.4%
same,"viability, T/C",[36],12.1%
CC(C)(O)C1CCC(Nc2ccc3ncc(-c4cccc(C(F)(F)F)c4)n3n2)CC1 (stereo unspecified) + Cc1[nH]c2ccc(F)cc2c1-c1nc2c3cccnc3c3ncccc3c2[nH]1,IC50,second compound 0.0316 µM,2400 nM
same,IC50,second compound 0.1 µM,2370 nM
same,IC50,second compound 0.316 µM,2240 nM
same,IC50,second compound 1 µM,1290 nM
same,IC50,second compound 3.16 µM,< 31.6 nM
same,IC50,second compound 10 µM,1330 nM
same,"viability, T/C",[1],106%
same,"viability, T/C",[2],112%
same,"viability, T/C",[3],109%
same,"viability, T/C",[4],86.5%
same,"viability, T/C",[5],38.8%
same,"viability, T/C",[6],30.7%
same,"viability, T/C",[7],133%
same,"viability, T/C",[8],121%
same,"viability, T/C",[9],103%
same,"viability, T/C",[10],95.3%
same,"viability, T/C",[11],32.2%
same,"viability, T/C",[12],30.1%
same,"viability, T/C",[13],77.5%
same,"viability, T/C",[14],85.5%
same,"viability, T/C",[15],81.3%
same,"viability, T/C",[16],93.8%
same,"viability, T/C",[17],35.2%
same,"viability, T/C",[18],26.3%
same,"viability, T/C",[19],58.7%
same,"viability, T/C",[20],67%
same,"viability, T/C",[21],57.5%
same,"viability, T/C",[22],55.8%
same,"viability, T/C",[23],30.6%
same,"viability, T/C",[24],24%
same,"viability, T/C",[25],30.7%
same,"viability, T/C",[26],40.9%
same,"viability, T/C",[27],38.8%
same,"viability, T/C",[28],39.7%
same,"viability, T/C",[29],23.1%
same,"viability, T/C",[30],27.7%
same,"viability, T/C",[31],76.4%
same,"viability, T/C",[32],52.6%
same,"viability, T/C",[33],63.2%
same,"viability, T/C",[34],57.2%
same,"viability, T/C",[35],25.9%
same,"viability, T/C",[36],30.7%
